Laboratory results published in patent US20090143361A1, “Pyrido[3,2-E]Pyrazines, Process For Preparing The Same, And Their Use As Inhibitors Of Phosphodiesterase 10” (ELBION GMBH, priority 2007, published 2009).
Read-outs that look alike come from different tables or passages of the source.

Biological target: PDE10 from pig striatum (Sus scrofa, UniProt A0A287B941)
Test: Inhibition of PDE10 from pig striatum ([3H]-cAMP SPA)
Type: biochemical
Conditions: read-out: PDE10 pig IC50
Protocol: Phosphodiesterase isoenzyme 10 (PDE10) activity was determined in preparations of human recombinant PDE10A and PDE10 from pig striatum, respectively.
Striatum from male hybrid pigs (150 kg) were collected and frozen at −70° C.
At the day of preparation 0.5 g striatum was homogenised in 10 ml 50 mM Tris/Mg-buffer at 4° C. and centrifuged for one hour at 100000 g. The supernatant was removed and the pellet was resuspended in the same buffer, but containing 1% Triton and incubated for 45 min at 4° C. The membrane fraction was applied onto a 5 ml Hi Trap™ QHP column at the Akta-FPLC. After washing the column the bound PDE protein was eluted with an increasing sodium chloride gradient (O mM-500 mM sodium chloride) in 50 mM Tris/Mg-buffer at 4° C. in the presence of 1% Triton. […] The fractions with PDE10-activity were pooled and frozen in aliquots until use at −20° C.
(§1) PDE10 activity was determined in a one step procedure in microtiterplates. […] Nonspecific activity was tested without the enzyme. The reaction was initiated by addition of the substrate solution and was carried out at 37° C. for 30 minutes. Enzymatic activity was stopped by addition of 25 μl YSi-SPA-beads (Amersham-Pharmacia). One hour later the mixture was measured in a liquid scintillation counter for microtiterplates (Microbeta Trilux). To pipette the incubation mixture a robot Biomek (Fa. Beckman) is used. […] For determination of IC50 values the Hill-plot, 2-parameter-model, was used.
The phosphodiesterase isoenzyme 10 (PDE10) activity was determined in preparations of rat, pig and guinea pig striatum respectively. Striatum from male Wistar rats (180-200 g), male hybrid pigs (150 kg) and male guinea pigs (CRL (HA), 500 g) respectively were collected and frozen at −70° C.
At the day of preparation 0.5 g striatum was homogenized in 10 ml 50 mM Tris/Mg-buffer at 4° C. and centrifuged for one hour at 100000 g. The supernatant is called the cytosolic fraction and was removed and stored on ice. The pellet was resuspended in the same buffer, but containing 1% Triton and incubated for 45 min at 4° C. Both fractions were independently applied onto a 5 ml Hi Trap™ QHP column at the Akta-FPLC. After washing the columns the bound PDE protein was eluted with an increasing sodium chloride gradient (0 mM-500 mM sodium chloride) in 50 mM Tris/Mg-buffer at 4° C. for the cytosolic fraction and in the presence of 1% Triton for the membrane fraction. […] The fractions with PDE10-activity were pooled and frozen in aliquots until use at −20° C.
as §1, with “YSi-SPA beads” for “YSi-SPA-beads”

Structure (SMILES) | IC50 (Table 7) [nM] | IC50 (Table 8) [nM]
COc1ccc(-c2nc(C)c3c(C)nc4ccc(OC)nc4n23)cn1 [Example 28, 2-Methoxy-9-(6-methoxypyridin-3-yl)-6,7-dimethylimidazo[1,5-a]pyrido[3,2-e]pyrazine] | 10 to 100 | –
COc1ccc2nc(C)c3c(C)nc(-c4cccnc4OC)n3c2n1 [Example 29, 2-Methoxy-9-(2-methoxypyridin-3-yl)-6,7-dimethylimidazo[1,5-a]pyrido[3,2-e]pyrazine] | 10 to 100 | –
COc1ccc2nc(C)c3c(C)nc(-c4cnccc4OC)n3c2n1 [Example 30, 2-Methoxy-9-(4-methoxypyridin-3-yl)-6,7-dimethylimidazo[1,5-a]pyrido[3,2-e]pyrazine] | 10 to 100 | –
COc1ccc2nc(Cl)c3c(C)nc(CCC(F)(F)F)n3c2n1 [Example 41, 6-Chloro-2-methoxy-7-methyl-9-(3,3,3-trifluoropropyl)imidazo[1,5-a]pyrido[3,2-e]pyrazine] | – | 10 to 100
COc1ccc2nc(C)c3c(C)nc(CCC(F)(F)F)n3c2n1 [Example 42, 2-Methoxy-6,7-dimethyl-9-(3,3,3-trifluoropropyl)imidazo[1,5-a]pyrido[3,2-e]pyrazine] | – | 10 to 100
COc1ccc2nc(N3CCC3)c3c(C)nc(CCC(F)(F)F)n3c2n1 [Example 43, 6-Azetidin-1-yl-2-methoxy-7-methyl-9-(3,3,3-trifluoropropyl)imidazo[1,5-a]pyrido[3,2-e]pyrazine] | – | > 100
COc1ccc2nc(N)c3c(C)nc(CCC(F)(F)F)n3c2n1 [Example 44, 2-Methoxy-7-methyl-9-(3,3,3-trifluoropropyl)imidazo[1,5-a]pyrido[3,2-e]pyrazin-6-amine] | – | 10 to 100
COc1ccc2nc(NS(C)(=O)=O)c3c(C)nc(CCC(F)(F)F)n3c2n1 [Example 45, N-[2-Methoxy-7-methyl-9-(3,3,3-trifluoropropyl)imidazo[1,5-a]pyrido[3,2-e]pyrazin-6-yl]methanesulfonamide] | – | 10 to 100
COc1ccc2nc(C)c3c(C)nc(-c4cc(Cl)ccc4Cl)n3c2n1 [Example 47, 9-(2,5-Dichlorophenyl)-2-methoxy-6,7-dimethylimidazo[1,5-a]pyrido[3,2-e]pyrazine] | – | < 10
COc1ccc2nc(C)c3c(C)nc(-c4cccc(Cl)c4)n3c2n1 [Example 48, 9-(3-Chlorophenyl)-2-methoxy-6,7-dimethylimidazo[1,5-a]pyrido[3,2-e]pyrazine] | – | < 10
COc1ccc2nc(C)c3c(C)nc(-c4ccccc4OC)n3c2n1 [Example 52, 2-Methoxy-9-(2-methoxyphenyl)-6,7-dimethylimidazo[1,5-a]pyrido[3,2-e]pyrazine] | – | 10 to 100
COc1ccc2nc(C)c3c(C)nc(-c4ccccc4OC(C)C)n3c2n1 [Example 54, 9-(2-Isopropoxyphenyl)-2-methoxy-6,7-dimethylimidazo[1,5-a]pyrido[3,2-e]pyrazine] | – | > 100
COc1ccc(-c2nc(C)c3c(C)nc4ccc(OC)nc4n23)cc1 [Example 55, 2-Methoxy-9-(4-methoxyphenyl)-6,7-dimethylimidazo[1,5-a]pyrido[3,2-e]pyrazine] | – | 10 to 100
COc1ccc2nc(C)c3c(C)nc(-c4ccsc4)n3c2n1 [Example 56, 2-Methoxy-6,7-dimethyl-9-(3-thienyl)imidazo[1,5-a]pyrido[3,2-e]pyrazine] | – | 10 to 100
COc1ccc2nc(C)c3c(C)nc(-c4ccoc4)n3c2n1 [Example 58, 9-(3-Furyl)-2-methoxy-6,7-dimethylimidazo[1,5-a]pyrido[3,2-e]pyrazine] | – | 10 to 100
COc1ccc2nc(C)c3c(C)nc(-c4ccc(C)cc4)n3c2n1 [Example 59, 2-Methoxy-6,7-dimethyl-9-(4-methylphenyl)imidazo[1,5-a]pyrido[3,2-e]pyrazine] | – | 10 to 100

Structure (SMILES) | IC50 (Table 7) [nM] | IC50 (Table 8) [nM]
COc1ccc2nc(C)c3c(C)nc(-c4ccco4)n3c2n1 [Example 60, 9-(2-Furyl)-2-methoxy-6,7-dimethylimidazo[1,5-a]pyrido[3,2-e]pyrazine] | – | 10 to 100
COc1cccc(-c2nc(C)c3c(C)nc4ccc(OC)nc4n23)c1 [Example 62, 2-Methoxy-9-(3-methoxyphenyl)-6,7-dimethylimidazo[1,5-a]pyrido[3,2-e]pyrazine] | – | < 10
COc1ccc2nc(C)c3c(C)nc(-c4cccc(OC(F)(F)F)c4)n3c2n1 [Example 63, 2-Methoxy-6,7-dimethyl-9-[3-(trifluoromethoxy)phenyl]imidazo[1,5-a]pyrido[3,2-e]pyrazine] | – | 10 to 100
COc1ccc2nc(C)c3c(C)nc(-c4ccc(OC(F)(F)F)cc4)n3c2n1 [Example 64, 2-Methoxy-6,7-dimethyl-9-[4-(trifluoromethoxy)phenyl]imidazo[1,5-a]pyrido[3,2-e]pyrazine] | – | 10 to 100
COc1ccc2nc(C)c3c(C)nc(-c4cccc(C)c4)n3c2n1 [Example 65, 2-Methoxy-6,7-dimethyl-9-(3-methylphenyl)imidazo[1,5-a]pyrido[3,2-e]pyrazine] | – | < 10
COc1ccc2nc(C)c3c(C)nc(-c4cccc(C(F)(F)F)c4)n3c2n1 [Example 66, 2-Methoxy-6,7-dimethyl-9-[3-(trifluoromethyl)phenyl]imidazo[1,5-a]pyrido[3,2-e]pyrazine] | – | 10 to 100
COc1ccc2nc(C)c3c(C)nc(-c4ccc(C(F)(F)F)cc4)n3c2n1 [Example 67, 2-Methoxy-6,7-dimethyl-9-[4-(trifluoromethyl)phenyl]imidazo[1,5-a]pyrido[3,2-e]pyrazine] | – | 10 to 100
COc1ccc2nc(C)c3c(C)nc(-c4cccs4)n3c2n1 [Example 68, 2-Methoxy-6,7-dimethyl-9-(2-thienyl)imidazo[1,5-a]pyrido[3,2-e]pyrazine] | – | 10 to 100
COc1ccc2nc(C)c3c(C)nc(-c4cscc4C)n3c2n1 [Example 69, 2-Methoxy-6,7-dimethyl-9-(4-methyl-3-thienyl)imidazo[1,5-a]pyrido[3,2-e]pyrazine] | – | < 10
COc1ccc2nc(C)c3c(C)nc(-c4ccccc4-c4ccccc4)n3c2n1 [Example 70, 9-Biphenyl-2-yl-2-methoxy-6,7-dimethylimidazo[1,5-a]pyrido[3,2-e]pyrazine] | – | 10 to 100
COc1ccc2nc(C)c3c(C)nc(-c4cccc(-c5ccccc5)c4)n3c2n1 [Example 71, 9-Biphenyl-3-yl-2-methoxy-6,7-dimethylimidazo[1,5-a]pyrido[3,2-e]pyrazine] | – | 10 to 100
COc1ccc2nc(C)c3c(C)nc(-c4ccc(-c5ccccc5)cc4)n3c2n1 [Example 72, 9-Biphenyl-4-yl-2-methoxy-6,7-dimethylimidazo[1,5-a]pyrido[3,2-e]pyrazine] | – | > 100
COc1ccc2nc(C)c3c(C)nc(-c4cccc(C#N)c4)n3c2n1 [Example 73, 3-(2-Methoxy-6,7-dimethylimidazo[1,5-a]pyrido[3,2-e]pyrazin-9-yl)benzonitrile] | – | 10 to 100
COc1ccc2nc(C)c3c(C)nc(-c4ccc(C#N)cc4)n3c2n1 [Example 74, 4-(2-Methoxy-6,7-dimethylimidazo[1,5-a]pyrido[3,2-e]pyrazin-9-yl)benzonitrile] | – | 10 to 100
COc1ccc2nc(C)c3c(C)nc(C#Cc4ccccc4)n3c2n1 [Example 75, 2-Methoxy-6,7-dimethyl-9-(phenylethynyl)imidazo[1,5-a]pyrido[3,2-e]pyrazine] | – | 10 to 100
COc1ccc2nc(C)c3c(C)nc(C#Cc4ccc(F)cc4)n3c2n1 [Example 76, 9-[(4-Fluorophenyl)ethynyl]-2-methoxy-6,7-dimethylimidazo[1,5-a]pyrido[3,2-e]pyrazine] | – | > 100
